Patent US9795593B2, “Use of 3-(3-[1,2,4]-triazolo)-oxatriazolium-5-olate for treating sexual disorders” (LIMITED LIABILITY COMPANY “KONSORTSIUM-PIK”, priority 2014, dated 2017)
Marks after values point to notes of the source that are not given here.

Assays:
[1] = system: purified sGC obtained of the rabbit's lungs; conditions: AS-6 100 mcmol/L, in vitro; cited from earlier work
[2] = system: nitric oxide (NO); experiment: Serum unbound nitric oxide (spectrophotometry, Griss reagent) in the model of arterial hypertension with endothelial dysfunction; type: in vivo, rat; conditions: for NO: rat serum at the end of experiment, M ± m, n = 8
Experimental: (§1) In the model of arterial hypertension with endothelial dysfunction, endothelial NOS blocker N-nitro-L-arginine methyl ester (L-NAME) was administered intraperitoneally, 25 mg/kg, daily, for 7 days. The blocker was administered in 3% sodium chloride in the dose 1 ml/100 g of body weight. This combination of NO-synthase inhibitor with hypertonic solution provides RAAS activation, aldosterone discharge, retention of sodium and water, functional impairment of the vascular endothelium.
(§2) The animals were divided into the arms as follows: 1—intact animals; 2—control group, males (L-NAME+NaCl; physiological saline as placebo); 3—male rats that received AS-6 in the dose 0.5 mg/kg (Dose 1); 4—male rats that received AS-6 in the dose 5 mg/kg (Dose 2); 5—male rats that received AS-6 in the dose 10 mg/kg (Dose 3); 6—virgin female rats (only in the assessment of the sexual activity). Each group included 8 animals.
(§3) Biochemical parameters were assessed with the use of prearranged kits (USCN Life Science Inc., USA, Bender MedSystems GmbH, Austria, R&D Systems, USA). The measurement was performed with the use of multifunctional photometer Synergy-2 (BioTek Instruments, Inc., USA). All studies were conducted in compliance with current laboratory regulations.
(§4) The assessment of endothelin-1, vascular endothelial growth factor and nitric oxide levels was performed in the rats' serum at the end of experiment with the use of immuno-enzyme analysis and spectrophotometric analysis with species-specific (rat-specific) antibodies.
Quantitative measurement of unbound nitric oxide was performed with the use spectrophotometry with R&D Systems kits (USA). The proteins were precipitated with zinc sulphate/sodium hydroxide. Serum supernatant samples of the experimental animals (50 mcL) and standards of known concentrations were introduced into the plate wells. Then, 50 mcL of sample diluent, Griss reagent 1 and Griss reagent 2 were added. The reaction was read at 540 and 690 nm after 10-minute incubation at 37° C.

[3] = system: vascular endothelial growth factor (VEGF); experiment: Serum vascular endothelial growth factor (ELISA) in the model of arterial hypertension with endothelial dysfunction; type: in vivo, rat; conditions: for VEGF: rat serum at the end of experiment, M ± m, n = 8
Experimental: as §1, §2, §3, §4
Quantitative measurement of vascular endothelial growth factor (VEGF) was performed with the use of ELISA with Bender MedSystems GmbH (Austria) kits. Calibration solution 100 mcL, serum samples of the experimental animals (50 mcL) and sample diluent (50 mcL) were introduced into the plate wells. Then, 50 mcL of biotin conjugate were added. After 2-hour incubation at 20° C., the wells were 6 time rinsed, and 100 mcL of streptavidin/horseradish peroxidase conjugate were introduced into each well. Thereafter, the plate was incubated again at 37° C. for 1 hour. The plate was 6 times rinsed with washing buffer, and 100 mcL of TMB substrate were introduced into each well. After 30-minute incubation at 20° C., 100 mcL of stop-solution were added. The reaction was read at 450 and 620 nm.

[4] = system: conscious SHR and Wistar rats; conditions: cited from earlier work
[5] = system: sexual behaviour in male rats; experiment: Sexual activity of male rats with a receptive female, 30-minute observation after the treatment cycle; type: in vivo, rat; parameters: key to Ejaculation rate / Muzzling, licking of the females: + - present; − - absent; conditions: for Intromission rate / Mounting rate: 30-minute period; for Intromission rate / Mounting rate / Intersession interval / Mounting latency: M ± m; for Intromission rate / Mounting rate / Intersession interval / Mounting latency / Ejaculation rate / Muzzling, licking of the females: n = 8
Experimental: as §1, §2
Testing of the animals' sexual activity was performed after the end of treatment cycle. Tested male was placed into the testing chamber (40×40×30 cm), 5 minutes before the presentation of sexually receptive female rat. One female was placed next to each male. The assessment of sexual behaviour was performed in the dark room at blind red light. The components of sexual activity were visually recorded during a 30-minute period: mounting latency (ML—interval from the female placing into the cage to the first male mounting) and the rate of mountings, intromissions and ejaculations.

[6] = system: sGC in the aortic tissue; conditions: aorta of Wistar rats; cited from earlier work
[7] = system: male Wistar rats, model of arterial hypertension with endothelial dysfunction; experiment: Blood pressure and heart rate in rat model of arterial hypertension with endothelial dysfunction (L-NAME + 3% NaCl); type: in vivo; conditions: for DBP / HR / SBP: M ± m, n = 8
Experimental: as §1
The experiments were performed with the use of 40 white male Wistar rats with the baseline body weight 220-240 g and 20 white virgin female rats 180-200 g. The animals were purchased from Rappolovo farm (Russian Academy of Medical Sciences, Saint-Petersburg). Besides mixed fodder, the rats received bread.
AS-6 substance (lot 080909) containing 101.0% of the active ingredient was used, according to the Protocol of Analysis No. 80-Pr, dated by 25 Sep. 2009 (Federal State Unitary Enterprise Special Technology and Construction Bureau “Tekhnolog”). The substance was used for preparation of solutions for daily oral administration based on the physiological saline.
The physiological saline was used as placebo. The solutions were administered daily through the atraumatic metallic feeding tube with fire-polished olive with the use of dosing syringe.
as §2
The measurement of the blood pressure in rats was performed with the use of the system for non-invasive blood pressure measurement for small animals within the complex Polygraph for electrophysiological studies (MP150WSW “BIOPAC Systems, Inc.”, USA.)
Rats were placed into special boxes. HR and BP (SBP and DBP) were recorded several minutes after the stabilization of the measured parameters. The parameters were measured on the tails with the use of piezoelectric probe and corresponding cuff, several minutes following animal placement on the thermostated sheet that maintained the temperature in the chambers within 26-27° C. The functional cardiovascular testing was performed before (at baseline) and after the administration of NOS inhibitor and at the end of treatment.

[8] = system: endothelin-1 (ET-1); experiment: Serum endothelin-1 (ELISA) in the model of arterial hypertension with endothelial dysfunction; type: in vivo, rat; conditions: for ET-1: rat serum at the end of experiment, M ± m, n = 8
Experimental: as §1, §2, §3, §4
Quantitative measurement of endothelin-1 (ET-1) was performed with the use of ELISA with USCN Life Science Inc. (USA) kits. Serum samples of the experimental animals (50 mcL) and standards of known concentrations were introduced into the plate wells. Then, 50 mcL of detecting solution (reagent A) were introduced. After 1-hour incubation at 37° C., the wells were 3-fold rinsed, and 100 mcL of detecting solution (reagent B) were introduced into each well. Thereafter, the plate was incubated again at 37° C. for 30 minutes. The plate was rinsed with washing buffer 5 times, and 90 mcL of TMB substrate were introduced into each well. After 15-minute incubation at 37° C., 50 mcL of stop-solution were added. The reaction was read at 450 nm.

[9] = system: model of L-NAME-induced NO deficiency; conditions: cited from earlier work
[10] = 7-day-long administration of L-NAME; cited from earlier work
[11] = system: NO-synthase; conditions: 7-day-long administration of L-NAME; cited from earlier work
[12] = AS-6 0.5 mg/kg oral daily, After treatment (Day 14)
[13] = AS-6 5 mg/kg oral daily, After treatment (Day 14)
[14] = AS-6 10 mg/kg oral daily, After treatment (Day 14)
[15] = arm AS-6 0.5 mg/kg, Baseline (Day 0), before L-NAME and treatment
[16] = arm AS-6 0.5 mg/kg, Post-dose L-NAME (Day 7), before treatment
[17] = arm AS-6 5 mg/kg, Baseline (Day 0), before L-NAME and treatment
[18] = arm AS-6 5 mg/kg, Post-dose L-NAME (Day 7), before treatment
[19] = arm AS-6 10 mg/kg, Baseline (Day 0), before L-NAME and treatment
[20] = arm AS-6 10 mg/kg, Post-dose L-NAME (Day 7), before treatment
[21] = Nicorandil (4 mg/kg) preconditioning

SMILES: [O-]c1n[n+](-c2nc[nH]n2)no1 [AS-6, 3-(3-[1,2,4]-triazolo)-oxatriazolium-5-olate]
- sGC activation compared to the basal activity [1]: up to 30 fold
- effect on nitric oxide (NO) production ([2]; exceeded the level of treatment-naive animals at 10 mg/kg): dose-dependent increase of nitric oxide (NO) production
- NO ([2]; AS-6 0.5 mg/kg): 8.83 ± 1.06 mcmol/l
- NO ([2]; AS-6 5.0 mg/kg): 10.75 ± 0.55^ mcmol/l
- NO ([2]; AS-6 10.0 mg/kg): 14.08 ± 1.25*^ mcmol/l
- effect on vascular endothelial growth factor production ([3]; 10 mg/kg dose: p=0.116 vs. control): dose-dependent trend to the normalization of vascular endothelial growth factor production
- VEGF ([3]; AS-6 0.5 mg/kg): 46.01 ± 2.42 pg/mL
- VEGF ([3]; AS-6 5.0 mg/kg): 79.49 ± 19.75 pg/mL
- VEGF ([3]; AS-6 10.0 mg/kg): 91.95 ± 21.84 pg/mL
- hypotensive effect [4]: prolonged hypotensive effect
- increase of number of animals with intromissions vs. control ([5]; AS-6 10 mg/kg): 4 fold
- number of animals with intromissions ([5]; AS-6 10 mg/kg): 50%
- animals with increased mounting rate vs. control ([5]; AS-6 0.5 and 5 mg/kg): 40%
- decrease of ML (mounting latency) ([5]; AS-6 0.5 and 5 mg/kg): 1.5 fold
- number of animals with intromissions ([5]; AS-6 0.5 and 5 mg/kg): 25%
- rats with increased intromission rate ([5]; AS-6 0.5 and 5 mg/kg): 25%
- Intromission rate ([5]; Azasidnon 0.5 mg/kg): 1.6 ± 1.4
- Mounting rate ([5]; Azasidnon 0.5 mg/kg): 6.6 ± 2.8
- Intersession interval ([5]; Azasidnon 0.5 mg/kg): 8.8 ± 0.9 min
- Mounting latency ([5]; Azasidnon 0.5 mg/kg): 3.9 ± 0.9*^ min
- Ejaculation rate ([5]; Azasidnon 0.5 mg/kg): −
- Muzzling, licking of the females ([5]; Azasidnon 0.5 mg/kg): +
- Intromission rate ([5]; Azasidnon 5.0 mg/kg): 1.4 ± 1.1
- Mounting rate ([5]; Azasidnon 5.0 mg/kg): 7.4 ± 3.1
- Intersession interval ([5]; Azasidnon 5.0 mg/kg): 10.2 ± 2.2 min
- Mounting latency ([5]; Azasidnon 5.0 mg/kg): 4.2 ± 1.9*^ min
- Ejaculation rate ([5]; Azasidnon 5.0 mg/kg): −
- Muzzling, licking of the females ([5]; Azasidnon 5.0 mg/kg): +
- Intromission rate ([5]; Azasidnon 10.0 mg/kg): 3.1 ± 1.5
- Mounting rate ([5]; Azasidnon 10.0 mg/kg): 8.6 ± 2.6
- Intersession interval ([5]; Azasidnon 10.0 mg/kg): 7.5 ± 1.9 min
- Mounting latency ([5]; Azasidnon 10.0 mg/kg): 3.2 ± 1.4*^ min
- Ejaculation rate ([5]; Azasidnon 10.0 mg/kg): −
- Muzzling, licking of the females ([5]; Azasidnon 10.0 mg/kg): +
- influence on ejaculation ([5]; all doses): did not influence
- activation of cGMP synthesis compared to baseline [6]: up to 13 fold
- effect on SBP and DBP levels ([7]; AS-6 0.5 mg/kg): did not affect SBP or DBP levels
- DBP [7, 12]: 111.9 ± 5.2 mm Hg
- HR [7, 12]: 420.0 ± 13.7
- SBP [7, 12]: 153.1 ± 7.3 mm Hg
- effect on SBP and DBP levels ([7]; AS-6 5 mg/kg): decrease of elevated DBP and unchanged elevated SBP
- DBP [7, 13]: 111.5 ± 7.9 mm Hg
- HR [7, 13]: 435.9 ± 28.9
- SBP [7, 13]: 141.9 ± 7.1 mm Hg
- DBP [7, 14]: 102.0 ± 3.2 mm Hg
- HR [7, 14]: 404.4 ± 17.6
- SBP [7, 14]: 123.4 ± 4.2 mm Hg
- effect on blood pressure ([7]; AS-6 10 mg/kg, vs. baseline values and experimental model, p<0.05): normalization of the blood pressure
- DBP [7, 15]: 98.7 ± 2.2 mm Hg
- HR [7, 15]: 417.6 ± 17.6
- SBP [7, 15]: 126.2 ± 2.5 mm Hg
- DBP [7, 16]: 113.8 ± 4.6 mm Hg
- HR [7, 16]: 351.8 ± 8.7
- SBP [7, 16]: 145.0 ± 3.1 mm Hg
- DBP [7, 17]: 97.9 ± 3.2 mm Hg
- HR [7, 17]: 428.2 ± 22.1
- SBP [7, 17]: 123.8 ± 3.4 mm Hg
- DBP [7, 18]: 117.0 ± 4.4 mm Hg
- HR [7, 18]: 376.0 ± 15.3
- SBP [7, 18]: 148.6 ± 4.5 mm Hg
- DBP [7, 19]: 98.5 ± 4.7 mm Hg
- HR [7, 19]: 393.6 ± 19.1
- SBP [7, 19]: 130.5 ± 4.6 mm Hg
- DBP [7, 20]: 120.1 ± 5.0 mm Hg
- HR [7, 20]: 357.1 ± 14.8
- SBP [7, 20]: 149.1 ± 3.4 mm Hg
- changes of the heart rate ([7]; control or experimental arm): No significant changes of the heart rate
- effect on blood pressure, dose dependence ([7]; peak at 10 mg/kg after 7 days of treatment): dose-dependent decrease of blood pressure
- effect on endothelin-1 levels ([8]; most significant at 10 mg/kg, p=0.010 vs. control): significant favourable changes of endothelin-1 levels
- ET-1 ([8]; AS-6 0.5 mg/kg): 2.48 ± 0.50 pg/mL
- ET-1 ([8]; AS-6 5.0 mg/kg): 1.75 ± 0.48 pg/mL
- ET-1 ([8]; AS-6 10.0 mg/kg): 0.78 ± 0.29 pg/mL

SMILES: COc1ccc(Cl)cc1C(=O)NCCc1ccc(S(=O)(=O)NC(=O)NC2CCCCC2)cc1 [Glibenclamide]
- effect on protective effects of preconditioning ([9]; Glibenclamide 4 mg/kg, blockade of ATP-dependent potassium channels): neutralized protective effects

SMILES: COC(=O)[C@@H](N)CCCNC(=N)N[N+](=O)[O-].Cl [L-NAME, N-omega-nitro-L-arginine methyl ester hydrochloride]
- increase of endothelial dysfunction ratio [10]: 5 fold
- mean diastolic BP [11]: 146.0±4.2 mm Hg
- mean systolic blood pressure [11]: 191.3±7.1 mm Hg

SMILES: O=C(NCCO[N+](=O)[O-])c1cccnc1 [Nicorandil]
- CRP [9, 21]: 0.6 ± 0.1 mg/dL
- NO level [9, 21]: 6.2±0.25 mcmol/L
- endothelial dysfunction ratio (EDR) [9, 21]: 1.76±0.18 AU
- myocardium contractility during resistance testing [9, 21]: 77.2±8.3%
